Experimental data published in ChEMBL document CHEMBL4402510, “Caprazamycins: Promising lead structures acting on a novel antibacterial target MraY” (Eur J Med Chem, 2019).
In brackets after ≈: the same amount, converted by molar mass.

Experiments:
[1] = system: Enterococcus faecium; experiment: Antibacterial activity against Enterococcus faecium ATCC 19434; type: functional
[2] = system: Haemophilus influenzae; experiment: Antibacterial activity against Haemophilus influenzae ATCC 10211; type: functional
[3] = system: Enterococcus faecalis; experiment: Antibacterial activity against Enterococcus faecalis ATCC 29212; type: functional
[4] = system: Enterococcus faecalis; experiment: Antibacterial activity against Enterococcus faecalis SR7914 (VRE); type: functional
[5] = molecular target: T1, Phospho-N-acetylmuramoyl-pentapeptide-transferase (Staphylococcus aureus, UniProt P0C1R8); experiment: Inhibition of MraY in Staphylococcus aureus
T1 sequence (P0C1R8 whole entry): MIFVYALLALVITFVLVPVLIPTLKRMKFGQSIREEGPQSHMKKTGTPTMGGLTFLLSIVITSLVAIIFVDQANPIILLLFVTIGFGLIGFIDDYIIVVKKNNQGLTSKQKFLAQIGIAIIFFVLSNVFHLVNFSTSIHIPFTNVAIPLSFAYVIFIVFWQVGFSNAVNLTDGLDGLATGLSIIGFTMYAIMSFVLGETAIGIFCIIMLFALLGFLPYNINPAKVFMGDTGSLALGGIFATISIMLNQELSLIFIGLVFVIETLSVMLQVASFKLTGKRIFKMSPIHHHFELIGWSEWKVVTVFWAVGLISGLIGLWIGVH

[6] = system: Staphylococcus aureus; experiment: Antibacterial activity against methicillin susceptible Staphylococcus aureus ATCC 29213; type: functional
[7] = system: Staphylococcus aureus; experiment: Antibacterial activity against methicillin resistant Staphylococcus aureus SR3637; type: functional
[8] = system: Enterococcus faecium; experiment: Antibacterial activity against Enterococcus faecium SR7917 (VRE); type: functional
[9] = system: Streptococcus pneumoniae; experiment: Antibacterial activity against Streptococcus pneumoniae; type: functional
[10] = system: Escherichia coli; experiment: Antibacterial activity against Escherichia coli ATCC 25922; type: functional
[11] = system: Acinetobacter baumannii; experiment: Antibacterial activity against Acinetobacter baumannii ATCC 19606; type: functional; details: ATCC 19606 = CIP 70.34 = JCM 6841
[12] = system: Pseudomonas aeruginosa; experiment: Antibacterial activity against Pseudomonas aeruginosa PAO1 deltamexB; type: functional
[13] = system: Pseudomonas aeruginosa; experiment: Antibacterial activity against Pseudomonas aeruginosa YY165; type: functional
[14] = system: Enterococcus faecalis; experiment: Antibacterial activity against t Enterococcus faecalis after 20 hrs by NCCLS-based two-fold broth dilution method; type: functional
[15] = system: Enterococcus faecalis; experiment: Antibacterial activity against t Enterococcus faecalis VRE after 20 hrs by NCCLS-based two-fold broth dilution method; type: functional
[16] = system: Staphylococcus aureus; experiment: Antibacterial activity against methicillin resistant Staphylococcus aureus after 20 hrs by NCCLS-based two-fold broth dilution method; type: functional
[17] = system: Staphylococcus aureus; experiment: Antibacterial activity against methicillin susceptible Staphylococcus aureus after 20 hrs by NCCLS-based two-fold broth dilution method; type: functional
[18] = system: Enterococcus faecium; experiment: Antibacterial activity against t Enterococcus faecium VRE after 20 hrs by NCCLS-based two-fold broth dilution method; type: functional
[19] = molecular target: T2, Phospho-N-acetylmuramoyl-pentapeptide-transferase (Aquifex aeolicus (strain VF5), UniProt O66465); experiment: Inhibition of MraY in Aquifex aeolicus
T2 sequence (O66465 whole entry): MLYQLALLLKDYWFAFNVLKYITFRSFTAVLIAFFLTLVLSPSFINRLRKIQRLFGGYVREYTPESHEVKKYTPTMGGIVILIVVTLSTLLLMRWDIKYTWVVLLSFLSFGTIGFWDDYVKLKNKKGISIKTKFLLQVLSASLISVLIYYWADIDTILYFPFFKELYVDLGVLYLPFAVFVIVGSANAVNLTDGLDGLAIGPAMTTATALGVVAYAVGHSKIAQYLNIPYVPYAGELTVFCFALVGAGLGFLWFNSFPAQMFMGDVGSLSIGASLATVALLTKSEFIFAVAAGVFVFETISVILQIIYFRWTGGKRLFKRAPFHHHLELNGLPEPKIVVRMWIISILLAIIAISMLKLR

[20] = system: Escherichia coli; experiment: Antibacterial activity against Escherichia coli ATCC 8730; type: functional
[21] = system: Citrobacter freundii; experiment: Antibacterial activity against Citrobacter freundii ATCC 8090; type: functional
[22] = system: Pseudomonas aeruginosa; experiment: Antibacterial activity against Pseudomonas aeruginosa ATCC 27853; type: functional
[23] = system: Staphylococcus aureus; experiment: Antibacterial activity against Staphylococcus aureus ATCC 25923; type: functional
[24] = system: Staphylococcus aureus; experiment: Antibacterial activity against methicillin resistant Staphylococcus aureus ATCC 43300; type: functional

Row | Compound | MIC [1] [µg/mL] | MIC [2] [µg/mL] | MIC [3] [µg/mL] | MIC [4] [µg/mL] | IC50 [5] [µM] | MIC [6] [µg/mL] | MIC [7] [µg/mL] | MIC [8] [µg/mL] | MIC [9] [µg/mL] | MIC [10] [µg/mL] | MIC [11] [µg/mL] | MIC [12] [µg/mL] | MIC [13] [µg/mL] | other results
1 | CC(=O)N[C@@H]1CCN[C@H]([C@H](O[C@@H]2O[C@H](CN)[C@@H](O)[C@H]2O)[C@H]2O[C@@H](n3ccc(=O)[nH]c3=O)[C@H](O)[C@@H]2O)C1 | > 64 | > 64 | > 64 | > 64 | 2600 | > 64 | > 64 | > 64 | > 64 | > 64 | > 64 | > 64 | > 64 | –
2 | CCCCCCCCCCCC(=O)N[C@@H]1CCN[C@@H]([C@H](O[C@@H]2O[C@H](CN)[C@@H](O)[C@H]2O)[C@H]2O[C@@H](n3ccc(=O)[nH]c3=O)[C@H](O)[C@@H]2O)C1 | – | – | 4 (≈ 6.1 µM) | 4 (≈ 6.1 µM) | – | – | – | – | – | – | – | – | – | MIC ([14]; read-out: MIC): 4 µg/mL (≈ 6.1 µM); MIC ([15]; read-out: MIC): 4 µg/mL (≈ 6.1 µM)
3 | CCCCCCCCCCCCCCCC(=O)NC[C@@H]1C[C@H]2[C@@H](C(=O)N1CCCNC(=N)N)[C@H]([C@H]1O[C@@H](n3ccc(=O)[nH]c3=O)[C@H](O)[C@@H]1O)ON2CCCN | – | – | 16 (≈ 20.6 µM) | 16 (≈ 20.6 µM) | – | 8 (≈ 10.3 µM) | 8 (≈ 10.3 µM) | 8 (≈ 10.3 µM) | – | – | – | – | – | MIC [14]: 16 µg/mL (≈ 20.6 µM); MIC [15]: 16 µg/mL (≈ 20.6 µM); MIC [16]: 8 µg/mL (≈ 10.3 µM); MIC [17]: 8 µg/mL (≈ 10.3 µM); MIC [18]: 8 µg/mL (≈ 10.3 µM)
4 | NC[C@H]1O[C@@H](O[C@@H](Cc2cn(CCCCCCCCCCc3ccccc3)nn2)[C@H]2O[C@@H](n3ccc(=O)[nH]c3=O)[C@H](O)[C@@H]2O)[C@H](O)[C@@H]1O | 64 (≈ 95.1 µM) | – | – | – | – | – | – | – | – | – | – | – | – | IC50 [19]: 20 µM; MIC [20]: > 128 µg/mL; MIC [21]: > 128 µg/mL; MIC [22]: > 128 µg/mL; MIC [23]: 32 µg/mL (≈ 47.6 µM); MIC [24]: 16 µg/mL (≈ 23.8 µM)
5 | CC(=O)N[C@@H]1CCN[C@@H]([C@@H](O[C@@H]2O[C@H](CN)[C@@H](O)[C@H]2O)[C@H]2O[C@@H](n3ccc(=O)[nH]c3=O)[C@H](O)[C@@H]2O)C1 | > 64 | > 64 | > 64 | > 64 | > 4200 | > 64 | > 64 | > 64 | > 64 | > 64 | > 64 | > 64 | > 64 | –
6 | CCCCCCCCCCCCCCCCC[C@H]1CN[C@@H]([C@H](O[C@@H]2O[C@H](CN)[C@@H](O)[C@H]2O)[C@H]2O[C@@H](n3ccc(=O)[nH]c3=O)[C@H](O)[C@@H]2O)C(=O)N(C)[C@@H]1C(=O)O | 8 (≈ 10.2 µM) | – | 8 (≈ 10.2 µM) | 16 (≈ 20.4 µM) | 3.8 | 8 (≈ 10.2 µM) | 8 (≈ 10.2 µM) | 16 (≈ 20.4 µM) | – | – | – | – | – | –
7 | CC(=O)N[C@H]1CCN[C@H]([C@H](O[C@@H]2O[C@H](CN)[C@@H](O)[C@H]2O)[C@H]2O[C@@H](n3ccc(=O)[nH]c3=O)[C@H](O)[C@@H]2O)C1 | > 64 | > 64 | > 64 | > 64 | 4000 | > 64 | > 64 | > 64 | > 64 | > 64 | > 64 | > 64 | > 64 | –
8 | NC[C@H]1O[C@@H](O[C@@H](Cn2cc(CCCCCCCCCCc3ccccc3)nn2)[C@H]2O[C@@H](n3ccc(=O)[nH]c3=O)[C@H](O)[C@@H]2O)[C@H](O)[C@@H]1O | 32 (≈ 47.6 µM) | – | – | – | – | – | – | – | – | – | – | – | – | IC50 [19]: 30 µM; MIC [20]: > 128 µg/mL; MIC [21]: > 128 µg/mL; MIC [22]: 64 µg/mL (≈ 95.1 µM); MIC [23]: 64 µg/mL (≈ 95.1 µM); MIC [24]: 16 µg/mL (≈ 23.8 µM)
9 | CC(=O)N[C@H]1CCN[C@H]([C@@H](O[C@@H]2O[C@H](CN)[C@@H](O)[C@H]2O)[C@H]2O[C@@H](n3ccc(=O)[nH]c3=O)[C@H](O)[C@@H]2O)C1 | > 64 | > 64 | > 64 | > 64 | > 4200 | > 64 | > 64 | > 64 | > 64 | > 64 | > 64 | > 64 | > 64 | –
